Test results as given in paper PMC12881674, “Activation of TRPV3 channels in bladder cancer cells stimulates ATP release” (Molecular Pharmacology, 2025).

Experiments:
KU-19-19 cells = assay: ATPlite luminescence assay of extracellular ATP; assay type: cell-based, human; conditions: 50 μM AV3-1, 30 minutes
Description: KU-19-19 cells (1 × 10^5 per well) were plated in 24-well plates and cultured for 24 hours. Medium was removed, and wells were washed with PBS before adding 1 mL of drugs dissolved in PBS. After 30 minutes, 100 μL of the supernatant was transferred to a 96-well plate. ATP content was measured using the ATPlite luminescence ATP assay (Revvity, catalog number 6016943) following manufacturer’s instructions. Luminescence was recorded using a Polarstar Omega reader and normalized to control wells without addition of drugs.
Fig. 4 TRPV3 activation by AV3-1 was enhanced by cholesterol supplementation and causes ATP release in KU-19-19 bladder cancer cells. […] Current amplitudes were recorded using voltage ramps from −100 mV to +100 mV (500-millisecond duration) and expressed as current density (pA/pF) measured at +100 mV and −100 mV. (C) Quantification of current densities (pA/pF) at −100 mV (inward current) and +100 mV (outward current) at the time points (1, 2) as indicated in (A, B). […] Statistical significance was determined using Kruskal-Wallis ANOVA followed by Conover test; ∗P < .05. […] Inset: Box-and-whisker plots of AV3-1 potencies under control conditions (open box) and following cholesterol supplementation (gray box), derived from individual concentration-response fits and expressed as pEC50 (-log10(EC50 [M])). […]

rat TRPV1 = biological target: T1, rat TRPV1 (Rattus norvegicus, UniProt O35433); assay: fluo-4 Ca2+ assay selectivity, HEK cells expressing rat TRPV1; assay type: cell-based; conditions: concentrations up to 50 μM
T1 construct: expressed in transfected cells; host or cells: HEK293
Description: KU-19-19 (DSMZ no. ACC 395), CAL-29 (DSMZ no. ACC 515), 647-V (DSMZ no. ACC 414), RT-4 (DSMZ no. ACC 412), and RT-112 (DSMZ no. ACC 418) bladder cancer cell lines were obtained from the Leibniz Institute DSMZ (German Collection of Microorganisms and Cell Cultures). Human TRPV3 (NM_145068, purchased from OriGene) and mouse TRPV3 (NM_001371006), rat TRPV1, mouse TRPV2, mouse TRPV4, human TRPM2, human TRPM8, and human TRPA1 were stably transfected in HEK293 cells as described before.[27] […]
All fluorometric Ca^2+ assays were performed in HBS buffer at room temperature. […] For the primary compound screening and the generation of concentration-response analyses, a robotic liquid handling station (Freedom Evo 150; Tecan) with a built-in custom-made fluorescence plate imager was used. […] Fluorescence was excited using a 470-nm light-emitting diode, and emitted light was imaged through a 515-nm–long pass filter with a cooled Zyla 5.5 camera (Andor). Fluorescence was recorded and processed under the control of the μ-Manager 2.0 gamma software (https://micro-manager.org.[28]). After recording baseline fluorescence, compounds were dispensed into the wells via the liquid handling device. […] For further analysis, fluorescence signals were calculated for each well, corrected for background intensities and normalized to the initial signals. […]

T1 sequence (O35433 whole entry): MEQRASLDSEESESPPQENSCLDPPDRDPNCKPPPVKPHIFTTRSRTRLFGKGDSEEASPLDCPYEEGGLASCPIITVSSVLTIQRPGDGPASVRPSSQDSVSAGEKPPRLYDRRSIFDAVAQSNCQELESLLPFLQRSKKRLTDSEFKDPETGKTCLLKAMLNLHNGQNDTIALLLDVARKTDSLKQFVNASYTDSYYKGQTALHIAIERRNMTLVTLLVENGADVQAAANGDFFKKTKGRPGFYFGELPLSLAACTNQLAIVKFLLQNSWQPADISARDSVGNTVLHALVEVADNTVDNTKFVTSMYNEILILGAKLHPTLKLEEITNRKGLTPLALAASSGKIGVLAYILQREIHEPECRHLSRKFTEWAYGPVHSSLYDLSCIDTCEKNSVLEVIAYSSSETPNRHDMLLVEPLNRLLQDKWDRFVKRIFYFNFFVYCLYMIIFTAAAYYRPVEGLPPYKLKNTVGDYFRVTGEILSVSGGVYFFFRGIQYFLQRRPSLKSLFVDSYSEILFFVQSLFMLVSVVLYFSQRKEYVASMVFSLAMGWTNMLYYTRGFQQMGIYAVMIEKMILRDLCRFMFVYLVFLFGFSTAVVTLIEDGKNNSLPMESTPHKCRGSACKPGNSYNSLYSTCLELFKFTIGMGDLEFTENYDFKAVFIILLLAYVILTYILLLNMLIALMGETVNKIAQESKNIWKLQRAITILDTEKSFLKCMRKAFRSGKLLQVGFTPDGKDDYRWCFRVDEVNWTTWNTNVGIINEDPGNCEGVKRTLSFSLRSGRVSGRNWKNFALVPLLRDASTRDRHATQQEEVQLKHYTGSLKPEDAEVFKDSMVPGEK

effect on TRPV1 (rat TRPV1): only a minor activation
SMILES: COC(=O)C12CN(Cc3ccccc3)CC1(C(=O)OC)CN(Cc1ccccc1)C2 (centres unmarked) [AV3-1]
ATP release compared with untreated control cells (KU-19-19 cells): statistically significant increased ATP release
